Legend:
[1] = Thermogravimetric analysis (thermal stability); type: physicochemical; settings: TGA, 15 °C/min under nitrogen
Method: Thermogravimetric analysis (TGA) allowed obtaining of thermal stability results for the presented compounds (K1–K3). For all derivatives, the temperature of 5% (T5) and 10% (T10) mass loss as well as the temperature of complete decomposition (Tmax) were determined. Referring to the T5 for K1–K3, we can see that it is in the range of 222 °C to 244 °C. Such high values indicate the high durability of these compounds. Moreover, the functional group in the substituent has a negligible effect on thermal stability. The best thermal properties are those of K3 compound, containing the 4-nitrophenyl group. In the case of replacing this group with benzonitrile (K2), we observe a slight decrease in T5 (by 13 °C), T10 (by 19 °C), and only one stage of Tmax degradation. On the other hand, compound K1 has the lowest T5 (222 °C). It is most likely due to the aliphatic nature of the substituent. Comparing the discussed derivatives (K1–K3) to their analogs described in the literature, we can see a significant similarity in thermal properties, despite different functional groups in the substituents.
Thermogravimetric analysis was performed on Perkin Elmer Thermogravimetric Analyzer Pyris 1 TGA at a heating rate of 15 °C/min under nitrogen. The electronic spectra were measured on a ThermoScientific Evolution 220 UV/Vis spectrometer. Photoluminescence emission spectra were acquired using Hitachi Fluorescence Spectrophotometer F-7100 [19].

mushroom tyrosinase = mushroom tyrosinase (Agaricus bisporus, UniProt C7FF04); assay: Kinetic analysis of the inhibition of tyrosinase (Lineweaver–Burk plots); type: biochemical; settings: inhibitor 0.05 and 0.1 mM, L-DOPA 0.1–0.25 mM
Sequence of mushroom tyrosinase (C7FF04 1-392): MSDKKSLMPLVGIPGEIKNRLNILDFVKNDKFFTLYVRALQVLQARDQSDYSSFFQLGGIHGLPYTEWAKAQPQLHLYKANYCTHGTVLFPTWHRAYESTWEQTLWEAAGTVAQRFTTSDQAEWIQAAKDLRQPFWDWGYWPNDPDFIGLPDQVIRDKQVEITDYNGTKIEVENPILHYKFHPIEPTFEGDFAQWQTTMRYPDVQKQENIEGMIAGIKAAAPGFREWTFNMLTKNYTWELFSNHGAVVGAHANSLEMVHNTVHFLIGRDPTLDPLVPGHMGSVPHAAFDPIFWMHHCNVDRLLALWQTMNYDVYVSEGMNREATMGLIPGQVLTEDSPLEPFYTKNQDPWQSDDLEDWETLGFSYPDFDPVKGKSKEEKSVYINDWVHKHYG
Method: Based on the Lineweaver–Burk double reciprocal plots, the inhibition mode for the three investigated compounds was established as mixed-type inhibition, i.e., the type of enzyme inhibition in which the inhibitor may bind to the enzyme regardless of whether or not the enzyme has already bound the substrate. […].
A series of experiments were performed to determine the inhibition kinetics of tested carbazoles by following the already reported method. The inhibitor concentrations for tested carbazoles were 0.05 and 0.1 mM. Substrate L-DOPA concentration was between 0.1 and 0.25 mM in all kinetic studies. Maximal initial velocity was determined from the initial linear portion of absorbance up to ten minutes after addition of enzyme. The inhibition type of the enzyme, Michaelis constant (Km) and maximal velicity (Vmax), were determined by Lineweaver–Burk plots of inverse of velocities (1/V) versus inverse of substrate concentration 1/[L-DOPA] mM^−1.

[2] = Dissolution in solvents for absorption/emission studies; type: physicochemical; settings: non-polar toluene
Method: Absorption and emission studies were carried out for investigated compounds K1–K3 using solvents of different polarities. The presented molecules differ in the substituent in thiazole ring. To check the influence of the substituent in the discussed molecules, the tests were carried out on solutions with a concentration of 2.5 × 10^−5 mol/L. In the first step, absorption maxima (λabs) were determined. The measured data are shown in Table 3, Figure 3, Figures S1 and S2.
Each of the derivatives has at least two bands registered in the absorption spectra. The main bands between 320 and 370 nm can be attributed to the π→π* transition. The next one is the band […] 300 nm. In the case of the presented molecules, the solvatochromic effect associated with the polarity of the solvent is not observed in the absorption spectra. The same behavior is shown by the analogs described in the literature. In the next step, the emission maxima were determined. For the K3 molecule, spectra were recorded only in chloroform, ethanol, and DMSO. […] For the rest, λem was successfully determined in several solvents. By analyzing the fluorescence spectra, the influence of the polarity of the solvent on the obtained results can be observed. […] Moreover, the Stokes shift increases from non-polar to polar solvents (K3 30 nm, K1 69 nm, K2 70 nm). […]

Row | SMILES | T5 (temperature at 5% weight loss) [1] [°C] | T10 (temperature at 10% weight loss) [1] [°C] | Inhibitory Mechanism (mushroom tyrosinase) | Vmax (mushroom tyrosinase) [mM/min] | solubility in toluene [2]
1 | C(=N\Nc1nc(C23CC4CC(CC(C4)C2)C3)cs1)/c1ccc(-n2c3ccccc3c3ccccc32)cc1 [K1, (E)-2-(2-(4-(9H-carbazol-9-yl)benzylidene)hydrazinyl)-4-(1-adamantyl)thiazole] | 222 | 279 | Mixed | 0.2608 | –
2 | N#Cc1ccc(-c2csc(N/N=C/c3ccc(-n4c5ccccc5c5ccccc54)cc3)n2)cc1 [K2, (E)-4-(2-(2-(4-(9H-carbazol-9-yl)benzylidene)hydrazinyl)thiazol-4-yl)benzonitrile] | 231 | 252 | Mixed | 0.4078 | –
3 | O=[N+]([O-])c1ccc(-c2csc(N/N=C/c3ccc(-n4c5ccccc5c5ccccc54)cc3)n2)cc1 [K3, (E)-2-(2-(4-(9H-carbazol-9-yl)benzylidene)hydrazinyl)-4-(4-nitrophenyl)thiazole] | 244 | 271 | Mixed | 0.4718 | did not dissolve
